Assays:
[1] = target: T1, human H4 receptor (Homo sapiens, UniProt Q9H3N8); test: H4 Antagonist Functional Dynamic Mass Redistribution Assay; assay type: cell-based; conditions: HEKf cells expressing human H4 receptor, antagonist mode vs histamine EC80, pKb by Cheng-Prusoff; for Kb: read-out: Human H4 DMR fpKb (converted)
T1 construct: expressed in transfected cells; host or cells: HEKf cells infected with baculovirus
Description: H4 Antagonist Functional Dynamic Mass Redistribution Assay
HEKf cells were infected using baculovirus expressing the human H4 receptor, plated into fibronectin-coated EPIC plates at a density of 10,000 cells/well and incubated overnight at 37° C. The medium on cells was changed to […] HBSS with 20 mM HEPES per well and 30 nL DMSO were added per well by LabCyte ECHO acoustic dispensing. Following 2 h equilibration at room temperature, 30 nL of H4 ligands prepared in DMSO were stamped by LabCyte ECHO acoustic dispensing into seeded EPIC plates and cellular dynamic mass redistribution was monitored using a Corning EPIC plate reader. Following 45 min measurement, 30 nL/well of histamine EC80 was added and monitored to obtain antagonist assay data. Maximum baseline-corrected responses in pm were used to generate concentration response curves. EC50 values were generated using a 4-parameter logistical fit equation to quantify agonist potencies. Functional antagonist affinity values were generated using the Cheng-Prusoff equation to calculate a pKb value using the antagonist assay data.

[2] = target: hERG (Homo sapiens, UniProt Q12809); test: hERG assay (QPatch automated patch clamp, CHO cells); assay type: cell-based; conditions: CHO cells stably expressing hERG, 1, 3, 10 and 30 μM, tail current, room temperature; for IC50: read-out: hERG pIC50 (converted)
Sequence of hERG (Q12809 whole entry): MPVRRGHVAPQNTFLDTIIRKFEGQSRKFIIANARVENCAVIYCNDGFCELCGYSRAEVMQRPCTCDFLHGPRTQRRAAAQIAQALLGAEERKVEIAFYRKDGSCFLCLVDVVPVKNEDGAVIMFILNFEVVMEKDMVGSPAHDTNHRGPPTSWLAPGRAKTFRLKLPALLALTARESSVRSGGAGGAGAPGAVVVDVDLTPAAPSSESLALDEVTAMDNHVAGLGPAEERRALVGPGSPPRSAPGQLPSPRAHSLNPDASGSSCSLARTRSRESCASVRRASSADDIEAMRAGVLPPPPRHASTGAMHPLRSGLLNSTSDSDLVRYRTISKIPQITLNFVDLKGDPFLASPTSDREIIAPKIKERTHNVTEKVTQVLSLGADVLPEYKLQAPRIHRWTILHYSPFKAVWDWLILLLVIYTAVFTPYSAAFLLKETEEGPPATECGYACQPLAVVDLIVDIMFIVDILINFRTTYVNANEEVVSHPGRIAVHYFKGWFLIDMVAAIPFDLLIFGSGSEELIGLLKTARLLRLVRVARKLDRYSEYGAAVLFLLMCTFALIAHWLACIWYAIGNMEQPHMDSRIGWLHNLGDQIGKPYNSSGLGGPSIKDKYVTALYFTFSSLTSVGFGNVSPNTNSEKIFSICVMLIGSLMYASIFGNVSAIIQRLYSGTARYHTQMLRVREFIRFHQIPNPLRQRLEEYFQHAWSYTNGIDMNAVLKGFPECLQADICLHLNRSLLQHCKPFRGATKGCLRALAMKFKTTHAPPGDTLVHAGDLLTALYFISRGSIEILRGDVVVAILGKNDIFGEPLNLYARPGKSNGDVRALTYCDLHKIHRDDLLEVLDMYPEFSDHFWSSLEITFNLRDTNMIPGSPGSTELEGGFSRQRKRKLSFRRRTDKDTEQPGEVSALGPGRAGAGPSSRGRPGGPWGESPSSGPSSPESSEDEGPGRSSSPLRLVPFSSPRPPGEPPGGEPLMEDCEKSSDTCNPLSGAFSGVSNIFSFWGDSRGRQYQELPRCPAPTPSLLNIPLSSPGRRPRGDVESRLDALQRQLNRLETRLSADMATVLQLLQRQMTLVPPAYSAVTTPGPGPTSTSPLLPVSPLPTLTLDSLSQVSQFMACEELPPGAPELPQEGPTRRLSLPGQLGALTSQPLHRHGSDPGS
Description: All experiments were performed on the QPatch automated patch clamp platform.
Series resistance (4-15 MΩ) was compensated by >80%.

T1 sequence (Q9H3N8 whole entry): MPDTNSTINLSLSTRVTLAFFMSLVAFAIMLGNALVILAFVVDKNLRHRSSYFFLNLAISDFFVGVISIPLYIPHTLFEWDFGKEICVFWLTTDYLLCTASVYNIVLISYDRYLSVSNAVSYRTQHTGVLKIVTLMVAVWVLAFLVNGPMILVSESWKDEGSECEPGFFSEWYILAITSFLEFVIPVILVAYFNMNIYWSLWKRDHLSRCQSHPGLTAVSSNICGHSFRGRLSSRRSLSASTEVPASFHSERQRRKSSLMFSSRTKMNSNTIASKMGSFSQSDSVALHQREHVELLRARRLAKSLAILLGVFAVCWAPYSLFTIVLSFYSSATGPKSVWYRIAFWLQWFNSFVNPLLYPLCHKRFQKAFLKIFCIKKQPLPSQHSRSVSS

Structure (SMILES): CNC1CN(c2cc(-c3cn(C)nc3C)nc(N)n2)C1 [Example 18, 4-(1,3-Dimethyl-1H-pyrazol-4-yl)-6-(3-(methylamino)azetidin-1-yl)pyrimidin-2-amine]
- Kb [1]: 7.94 nM
- IC50 [2]: > 100000 nM

Structure (SMILES): CNC1CN(c2cc(-c3c[nH]nc3C(F)(F)F)nc(N)n2)C1 [Example 37, 4-(3-(Methylamino)azetidin-1-yl)-6-(3-(trifluoromethyl)-1H-pyrazol-4-yl)pyrimidin-2-amine]
- Kb [1]: 31.6 nM
- IC50 [2]: > 31600 nM

Structure (SMILES): CNC1CN(c2cc(-c3cnn(CCF)c3)nc(N)n2)C1 [Example 10, 4-(1-(2-Fluoroethyl)-1H-pyrazol-4-yl)-6-(3-(methylamino)azetidin-1-yl)pyrimidin-2-amine]
- Kb [1]: 5.01 nM
- IC50 [2]: > 100000 nM

Structure (SMILES): CNC1CN(c2cc(-c3c[nH]nc3C)nc(N)n2)C1 [Example 39, 4-(3-Methyl-1H-pyrazol-4-yl)-6-(3-(methylamino)azetidin-1-yl)pyrimidin-2-amine]
- Kb [1]: 3.98 nM
- IC50 [2]: > 31600 nM

Structure (SMILES): CC(C)c1cc(N2CC[C@@H](N)C2)nc(N)n1 [JNJ-39758979, reference compound]
- Human H4 DMR fpKb [1]: 8.5
- hERG pIC50 [2]: ≤4.0

Structure (SMILES): CCc1cc(-c2cc(N3CC(NC)C3)nc(N)n2)n(C)n1 [Example 25, 4-(3-Ethyl-1-methyl-1H-pyrazol-5-yl)-6-(3-(methylamino)azetidin-1-yl)pyrimidin-2-amine]
- Kb [1]: 100 nM

Structure (SMILES): CNC1CN(c2cc(-c3cnn(CC(F)(F)F)c3)nc(N)n2)C1 [Example 2, 4-(3-(Methylamino)azetidin-1-yl)-6-(1-(2,2,2-trifluoroethyl)-1H-pyrazol-4-yl)pyrimidin-2-amine]
- Kb [1]: 15.8 nM
- IC50 [2]: > 100000 nM

Structure (SMILES): CCn1ncc(-c2cc(N3CC(NC)C3)nc(N)n2)c1C [Example 21, 4-(1-Ethyl-5-methyl-1H-pyrazol-4-yl)-6-(3-(methylamino)azetidin-1-yl)pyrimidin-2-amine]
- Kb [1]: 2.51 nM
- IC50 [2]: > 100000 nM

Structure (SMILES): CNC1CN(c2cc(-c3cn[nH]c3)nc(N)n2)C1 [Example 38, 4-(3-(Methylamino)azetidin-1-yl)-6-(1H-pyrazol-4-yl)pyrimidin-2-amine]
- Kb [1]: 5.01 nM
- IC50 [2]: > 31600 nM

Structure (SMILES): CNC1CN(c2cc(-c3cnn(C)c3Cl)nc(N)n2)C1 [Example 15, 4-(5-Chloro-1-methyl-1H-pyrazol-4-yl)-6-(3-(methylamino)azetidin-1-yl)pyrimidin-2-amine]
- Kb [1]: 7.94 nM
- IC50 [2]: > 100000 nM

Structure (SMILES): CN[C@@H]1CCN(c2cc(-c3cnn(C)c3Cl)nc(N)n2)C1 [Example 5, (R)-4-(5-Chloro-1-methyl-1H-pyrazol-4-yl)-6-(3-(methylamino)pyrrolidin-1-yl)pyrimidin-2-amine]
- Kb [1]: 3.98 nM
- IC50 [2]: > 100000 nM

Structure (SMILES): CNC1CN(c2cc(-c3cc(Cl)nn3C)nc(N)n2)C1 [Example 26, 4-(3-Chloro-1-methyl-1H-pyrazol-5-yl)-6-(3-(methylamino)azetidin-1-yl)pyrimidin-2-amine]
- Kb [1]: 15.8 nM
- IC50 [2]: > 100000 nM

Structure (SMILES): CNC1CN(c2cc(-c3cn(C)nc3Br)nc(N)n2)C1 [Example 31, 4-(3-Bromo-1-methyl-1H-pyrazol-4-yl)-6-(3-(methylamino)azetidin-1-yl)pyrimidin-2-amine]
- Kb [1]: 7.94 nM
- IC50 [2]: > 31600 nM

Structure (SMILES): CNC1CN(c2cc(-c3cnn(C(F)F)c3)nc(N)n2)C1 [Example 1, 4-(1-(Difluoromethyl)-1H-pyrazol-4-yl)-6-(3-(methylamino)azetidin-1-yl)pyrimidin-2-amine]
- Kb [1]: 1.26 nM
- IC50 [2]: > 100000 nM

Structure (SMILES): CN1CCN(C(=O)c2cc3cc(Cl)ccc3[nH]2)CC1 [JNJ-7777120, reference compound]
- IC50 [2]: ≥ 100000 nM

Structure (SMILES): CNC1CN(c2cc(-c3cc(C)nn3C)nc(N)n2)C1 [Example 24, 4-(1,3-Dimethyl-1H-pyrazol-5-yl)-6-(3-(methylamino)azetidin-1-yl)pyrimidin-2-amine]
- Kb [1]: 126 nM
- IC50 [2]: > 100000 nM

Structure (SMILES): CCn1cc(-c2cc(N3CC[C@@H](NC)C3)nc(N)n2)c(C)n1 [Example 14, (R)-4-(1-Ethyl-3-methyl-1H-pyrazol-4-yl)-6-(3-(methylamino)pyrrolidin-1-yl)pyrimidin-2-amine]
- Kb [1]: 100 nM
- IC50 [2]: 28800 nM

Structure (SMILES): CCn1cc(-c2cc(N3CC(NC)C3)nc(N)n2)cn1 [Example 3, 4-(1-Ethyl-1H-pyrazol-4-yl)-6-(3-(methylamino)azetidin-1-yl)pyrimidin-2-amine]
- Kb [1]: 3.98 nM
- IC50 [2]: > 100000 nM

Structure (SMILES): Cc1cc(C)c2nc(-c3cnc(NCCCC4CCN(C)CC4)nc3C)[nH]c2c1 [Toreforant, reference compound]
- Kb [1]: 12.6 nM
- IC50 [2]: 3160 nM

Structure (SMILES): CNC1CN(c2cc(-c3cn(C(F)F)nc3C)nc(N)n2)C1 [Example 4, 4-(1-(Difluoromethyl)-3-methyl-1H-pyrazol-4-yl)-6-(3-(methylamino)azetidin-1-yl)pyrimidin-2-amine]
- Kb [1]: 2.51 nM
- IC50 [2]: > 100000 nM

Structure (SMILES): Nc1nc(-c2cnn(C(F)(F)F)c2)cc(N2CC(N)C2)n1 [Example 6, 4-(3-Aminoazetidin-1-yl)-6-(1-(trifluoromethyl)-1H-pyrazol-4-yl)pyrimidin-2-amine]
- Kb [1]: 12.6 nM
- IC50 [2]: > 100000 nM

Structure (SMILES): CNC1CN(c2cc(-c3[nH]nc(Cl)c3Cl)nc(N)n2)C1 [Example 42, 4-(4,5-Dichloro-1H-pyrazol-3-yl)-6-(3-(methylamino)azetidin-1-yl)pyrimidin-2-amine]
- Kb [1]: 6.31 nM
- IC50 [2]: > 100000 nM

Structure (SMILES): CNC1CN(c2cc(-c3cc(C)[nH]n3)nc(N)n2)C1 [Example 35, 4-(5-Methyl-1H-pyrazol-3-yl)-6-(3-(methylamino)azetidin-1-yl)pyrimidin-2-amine]
- Kb [1]: 3.98 nM
- IC50 [2]: > 31600 nM

Structure (SMILES): CNC1CN(c2cc(-c3cn(CC(F)(F)F)nc3C)nc(N)n2)C1 [Example 19, 4-(3-Methyl-1-(2,2,2-trifluoroethyl)-1H-pyrazol-4-yl)-6-(3-(methylamino)azetidin-1-yl)pyrimidin-2-amine]
- Kb [1]: 50.1 nM
- IC50 [2]: > 31600 nM

Structure (SMILES): CNC1CN(c2cc(-c3cnn(CC(F)F)c3)nc(N)n2)C1 [Example 9, 4-(1-(2,2-Difluoroethyl)-1H-pyrazol-4-yl)-6-(3-(methylamino)azetidin-1-yl)pyrimidin-2-amine]
- Kb [1]: 12.6 nM
- IC50 [2]: > 100000 nM

Structure (SMILES): CCn1cc(-c2cc(N3CC(NC)C3)nc(N)n2)c(C)n1 [Example 13, 4-(1-Ethyl-3-methyl-1H-pyrazol-4-yl)-6-(3-(methylamino)azetidin-1-yl)pyrimidin-2-amine]
- Kb [1]: 10 nM
- IC50 [2]: > 100000 nM

Structure (SMILES): CNC1CN(c2cc(-c3n[nH]c(C(F)(F)F)c3C)nc(N)n2)C1 [Example 17, 4-(4-Methyl-5-(trifluoromethyl)-1H-pyrazol-3-yl)-6-(3-(methylamino)azetidin-1-yl)pyrimidin-2-amine]
- Kb [1]: 1 nM
- IC50 [2]: > 100000 nM

Structure (SMILES): CNC1CN(c2cc(-c3cnn(C)c3Br)nc(N)n2)C1 [Example 30, 4-(5-Bromo-1-methyl-1H-pyrazol-4-yl)-6-(3-(methylamino)azetidin-1-yl)pyrimidin-2-amine]
- Kb [1]: 1.58 nM
- IC50 [2]: > 100000 nM

Structure (SMILES): CNC1CN(c2cc(-c3cc(C(F)(F)F)nn3C)nc(N)n2)C1 [Example 27, 4-(1-Methyl-3-(trifluoromethyl)-1H-pyrazol-5-yl)-6-(3-(methylamino)azetidin-1-yl)pyrimidin-2-amine]
- Kb [1]: 15.8 nM
- IC50 [2]: 44700 nM

Structure (SMILES): CNC1CN(c2cc(-c3cnn(C(C)C)c3C)nc(N)n2)C1 [Example 22, 4-(1-Isopropyl-5-methyl-1H-pyrazol-4-yl)-6-(3-(methylamino)azetidin-1-yl)pyrimidin-2-amine]
- Kb [1]: 7.94 nM
- IC50 [2]: > 100000 nM

Structure (SMILES): CCc1cc(-c2cc(N3CC(NC)C3)nc(N)n2)n[nH]1 [Example 41, 4-(5-Ethyl-1H-pyrazol-3-yl)-6-(3-(methylamino)azetidin-1-yl)pyrimidin-2-amine]
- Kb [1]: 7.94 nM
- IC50 [2]: > 31600 nM

Structure (SMILES): CNC1CN(c2cc(-c3nn(C)cc3C)nc(N)n2)C1 [Example 8, 4-(1,4-Dimethyl-1H-pyrazol-3-yl)-6-(3-(methylamino)azetidin-1-yl)pyrimidin-2-amine]
- Kb [1]: 7.94 nM
- IC50 [2]: 23400 nM

Structure (SMILES): CNC1CN(c2cc(-c3cnn(CC(F)(F)F)c3C)nc(N)n2)C1 [Example 12, 4-(5-Methyl-1-(2,2,2-trifluoroethyl)-1H-pyrazol-4-yl)-6-(3-(methylamino)azetidin-1-yl)pyrimidin-2-amine]
- Kb [1]: 7.94 nM
- IC50 [2]: 38900 nM

Structure (SMILES): CCNC1CN(c2cc(-c3cnn(C(F)(F)F)c3)nc(N)n2)C1 [Example 7, 4-(3-(Ethylamino)azetidin-1-yl)-6-(1-(trifluoromethyl)-1H-pyrazol-4-yl)pyrimidin-2-amine]
- Kb [1]: 7.94 nM
- IC50 [2]: 42700 nM

Structure (SMILES): CNC1CN(c2cc(-c3cn(C(C)C)nc3C)nc(N)n2)C1 [Example 11, 4-(1-Isopropyl-3-methyl-1H-pyrazol-4-yl)-6-(3-(methylamino)azetidin-1-yl)pyrimidin-2-amine]
- Kb [1]: 10 nM
- IC50 [2]: > 100000 nM

Structure (SMILES): CCc1[nH]nc(-c2cc(N3CC(NC)C3)nc(N)n2)c1C [Example 40, 4-(5-Ethyl-4-methyl-1H-pyrazol-3-yl)-6-(3-(methylamino)azetidin-1-yl)pyrimidin-2-amine]
- IC50 [2]: > 31600 nM
